Data: patent US7374890B2, “Methods for identifying compounds that modulate ΔTRα2 activity” (University of Massachusetts, priority 2000, dated 2008)

What was measured:
[1] = tested on: binding of p29 vesicles to F-actin; experiment: in vitro actin binding assay with BrAc[125I]T4-labeled p29 vesicles; type: biochemical, rat; conditions: 10 nM hormone, 20 minutes at 37° C.
Description: Actin binding of the p29 vesicles was then initiated by addition of 10 nM T4, and the Triton-insoluble (F-actin bound) pellet was separated from the Triton-soluble (vesicle) fraction.
An in vitro binding assay was developed whose principle is based on the hormone dependent redistribution of affinity labeled p29 between the Triton-soluble (vesicle pool) and Triton-insoluble (F-actin cytoskeleton) fractions. The assay was used to examine the hormone dependent relationship between the p29-containing endosome and the F-actin cytoskeleton. Two different pools of astrocytes were prepared. […] The other astrocyte pool was used to prepare affinity BrAc [^125 I]T4-labeled p29 vesicles from thyroid-deficient cells (V-lysate; Farwell et al. 1990, J. Biol. Chem. 265:18546-18553). V-lysates were prepared from cAMP-stimulated astrocytes grown in serum-free media that were labeled with 2 nM BrAc[^125 I]T4 as described in Farwell et al. (1990, J. Biol. Chem. 265:18546-18553). […]
After the incubation, the mixtures were chilled on ice for 2 minutes, then Triton X-100® (0.5% v/v, final) was added and the soluble (Triton supernatant, vesicles) and insoluble (Triton pellet, F-actin) fractions were separated by microfuge centrifugation at 4° C. for 5 minutes. The distribution of [^125 I]-labeled p29 was then determined by SDS PAGE analysis.

[2] = tested on: astrocytes; experiment: subcellular distribution of immunoreactive TRα2-derived proteins in cultured astrocytes; type: cell-based, rat; conditions: serum-free medium, treated 20 minutes, 0.1% bovine serum albumin carrier
From the text: The subcellular distribution of immunoreactive thyroid hormone receptor-derived proteins in primary brain cell cultures and in cultured astrocytes was examined. Primary brain cell cultures were fixed with 0.4% paraformaldehyde, permeabilized with Triton X-100®, and stained for TRα-derived proteins using specific antisera directed against the unique C-termini of TRα1 and TRα2 proteins, and visualized by staining with a secondary tagged antibody. Consistent with previous observations (Kolodny et al., 1985, Endocrinol. 117: 1848-1857), immunoreactive TRα1 proteins were found in the nuclei of astrocytes and neuronal cells. However, TRα2-derived proteins were not localized to the nucleus in either astrocytes or neurons, but appeared as donut shaped structures located throughout the astrocyte or as discreet punctate signals along neuronal fibers. This latter pattern is diagnostic for synapses in neuronal cultures (Wong et al., 1999, Neurosci. 89:221-233), and is consistent with the presence of ΔTRα2-derived protein in nerve terminals.
The subcellular distribution of immunoreactive TRα2-derived proteins in cultured astrocytes was influenced by the presence of either T4 or rT3. In these experiments astrocytes were grown in serum-free medium, treated for 20 minutes with either […] or rT3, and fixed, permeabilized, and stained as described above. […]

[3] = target: T1, ΔTRα2 (Rattus norvegicus, UniProt P63059); experiment: [125I]rT3 displacement from cell-free translated ΔTRα2; type: binding; conditions: cell-free translated polypeptide
T1 sequence (P63059 256-492): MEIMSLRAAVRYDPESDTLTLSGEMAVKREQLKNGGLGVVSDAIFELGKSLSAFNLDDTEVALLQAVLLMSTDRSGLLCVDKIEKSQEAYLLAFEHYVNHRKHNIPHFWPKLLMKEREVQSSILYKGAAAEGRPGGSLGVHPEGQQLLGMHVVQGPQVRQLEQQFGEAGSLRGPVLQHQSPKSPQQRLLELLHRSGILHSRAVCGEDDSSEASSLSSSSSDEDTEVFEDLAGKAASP
From the text: ΔTRα1 and ΔTRα2 polypeptides were synthesized by cell-free translation of appropriate segments of the rat ΔTRα1 and ΔTRα2 cDNA using the coupled transcription-translation kit from Promega® (TNT) according to the manufacturer's instructions.

[4] = target: T2, ΔTRα2 (T4 Inactivating Protein; TIP) (Rattus norvegicus, UniProt P63059); experiment: rT3 binding displacement in nuclei-free extracts of cultured rat astrocytes; conditions: ΔTRα2-containing nuclei-free astrocyte extracts; rT3 as ligand; read-out: Kd, displacement of rT3
T2 construct: ΔTRα2 is encoded by exons 8-10 resulting in an approximately 25 kd protein
Description: The properties of thyroid hormone binding to non-nuclear components of the cell were examined using ΔTRα2 (T4 Inactivating Protein; TIP)-containing, nuclei-free extracts of cultured rat astrocytes. […] Both rT3 and T4 specifically displace rT3 with Kd's of approximately 0.3-0.5 nM.

[5] = tested on: D2 activity; conditions: in astrocytes; cited from earlier work
[6] = tested on: cerebellar granule neurons; experiment: FM1-43 synaptic vesicle recycling in cultured cerebellar granule neurons, spontaneous activity; type: cell-based, rat
Description: All of the major components of hormone-induced vesicle trafficking in astrocytes (actin fibers, myosin V (also referred to as myosin 5a and myo 5a), and recycling vesicles) are also present in nerve terminals. Therefore, the effects of thyroid hormone on synaptic vesicle recycling in the presynaptic nerve terminal were examined using myo5a-dependent synaptic vesicle (SV) recycling in cultured cerebellar granule neurons. In these experiments, rat granule neurons were grown on laminin-coated coverslips in the absence or presence of hormone and synaptic vesicle recycling was examined using FM1-43 (a styryl dye used in the art for studying endocytosis and exocytosis, e.g., in synaptic vesicle uptake and release assays; Molecular Probes, Inc. Eugene, Oreg.). […] In contrast, granule neurons grown in thyroid hormone supplemented medium released only 15-20% of the FM1-43 after six minutes of incubation and the hormone specificity of retention of FM1-43 in the “reserve pool” was identical to that determined for myo5a-dependent, endocytosis of p29 vesicles (D2p29 vesicles) in astrocytes.
Cerebellar granule neurons were examined because thyroid hormone has a profound influence on granule neuron viability during cerebellar maturation (Xiao and Nikodem, 1998, Front. Biosci. 3: A52-57; Rabie et al., 1980, Brain Res. 190:409-414), and because of the effects of the loss of myo5a on synaptic vesicle homeostasis (Bridgman, 1999, J. Cell Biol. 146:1045-1060). […]
Experiments were conducted to determine whether synaptic vesicle endocytosis could be altered by the hormone status of the neuron. […] The dye was then removed and the number, intensity and retention of the FM1-43 in random nerve terminals immediately after washing and after six minutes of autonomous activity were analyzed in paraformaldehyde fixed cells (Ryan, 1999, J. Neurosci.: 19:1317-1323). Fluorescence in single nerve terminals (ROI=7×7 pixels) and in an adjacent segment of the neuronal fiber were measured for 40-45 individual nerve terminals. […] Fluorescence intensity was determined using NIH Image software. The total FM1-43 fluorescence in a nerve terminal represents the sum of the dye-loaded synaptic vesicles in the readily releasable and the reserve pools.
By allowing recurrent activity, the FM1-43 filled synaptic vesicles present in the readily releasable pool will be progressively depleted. […] By measuring the total FM1-43 content in random nerve terminals immediately after loading and at 30 second intervals for six minutes of spontaneous activity, the influence of hormones on the distribution of recycling synaptic vesicles between the readily releasable and reserve pools was estimated.

T2 sequence (P63059 whole entry, stated change not applied): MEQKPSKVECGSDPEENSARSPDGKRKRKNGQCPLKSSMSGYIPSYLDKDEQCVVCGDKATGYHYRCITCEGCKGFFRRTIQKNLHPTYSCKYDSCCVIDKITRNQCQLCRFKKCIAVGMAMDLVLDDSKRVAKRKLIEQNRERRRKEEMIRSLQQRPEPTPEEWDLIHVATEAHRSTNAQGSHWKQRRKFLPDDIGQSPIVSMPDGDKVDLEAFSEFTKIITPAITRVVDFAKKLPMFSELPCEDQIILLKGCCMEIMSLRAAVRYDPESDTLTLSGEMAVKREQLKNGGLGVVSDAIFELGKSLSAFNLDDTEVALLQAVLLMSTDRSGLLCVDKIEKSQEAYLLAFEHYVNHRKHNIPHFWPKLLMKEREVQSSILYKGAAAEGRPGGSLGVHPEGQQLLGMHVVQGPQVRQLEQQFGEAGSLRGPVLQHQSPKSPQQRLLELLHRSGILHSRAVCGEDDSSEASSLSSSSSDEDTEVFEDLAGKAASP

N[C@@H](Cc1cc(I)c(Oc2cc(I)c(O)c(I)c2)c(I)c1)C(=O)O [T4, thyroxine]
radiolabeled p29 bound to the Triton insoluble, F-actin fraction [1]: more than 70% | subcellular distribution of TRα2-derived proteins [2]: coalescence of the TRα2-derived proteins around the perinuclear space | Kd [3]: 0.3 to 1 nM | Kd [4]: 0.3 to 0.5 nM | quantity of D2 activity [5]: decreases the quantity of D2 activity | endocytosed FM1-43 retained ([6]; acute treatment, after three minutes of spontaneous stimulation): > 90% | uptake of FM1-43 ([6]; immediately after loading): No differences
